Measurements: US20040110776A1, “Use of propentofylline to control intraocular pressure” (priority 2003, published 2004)

How the values were obtained:
human anterior segment = conditions: perfusion of the anterior segment; cited from earlier work
[1] = tested on: IOP in ocular normotensive rabbits; conditions: topical instillation of 2%; cited from earlier work
Rabbit IOP = Rabbit IOP after topical ocular dosing (pneumatonometer); format: in vivo; conditions: for effect on IOP of rabbits (in words): 500 μg topical (2×25 μL, 1% solution); for % Change in IOP Mean / IOP (mmHg) Mean: 500 μg topical, n = 10
Experimental: When propentofylline was tested in the rabbit for its potential effect on IOP. […] In this study, the rabbits were placed in restrainers, and IOP was determined with an Alcon Pneumatonometer after light corneal anesthesia with 0.1% proparacaine (Alcaine® diluted with physiogical saline). Following each IOP measurement, residual anesthetic was washed away with saline. After two baseline measurements, animals were dosed topically on the cornea with vehicle or propentofylline (2×25 μL, 1% solution). IOP measurements were taken at indicated intervals.

[2] = tested on: MMP-3 expression in cultured human trabecular meshwork (HTM-35D) cells; test: MMP-3 expression in cultured human trabecular meshwork (HTM-35D) cells, proMMP-3 ELISA of medium; format: cell-based; conditions: 72 hours; for change in MMP-3 expression in the TM cells: indicated concentration (FIG. 1, lower panel)
Excerpt: Propentofylline was unexpectedly discovered to stimulate the expression of metalloproteinase-3 (MMP-3; stromelysin) in cultured human trabecular meshwork cells.
Effect of Various Compounds on MMP-3 Expression in Cultured Human Trabecular Meshwork (HTM-35D) Cells
Human TM cells were isolated, characterized and cultured as described (Steely et al, The effects of dexamethasone on fibronectin expression in cultured human trabecular meshwork cells, Investigative Ophthalmology and Visual Science, 1992;33:2242-2250) They were maintained at 5% CO2 and 37° C. in a medium consisting of Dulbecco's modified Eagle medium with Glutamax I supplemented with 10% fetal bovine serum and 50 μg/mL gentamicin. Confluent cell cultures were treated with the indicated compounds at the indicated final concentration for 72 hours and the medium assayed for proMMP-3 by a commercially available ELISA assay kit. (See FIG. 1.) Abbreviations: PPF-OH is hydroxypropentofylline.

lasered monkey eyes = test: IOP in lasered (ocular hypertensive) monkey eyes; format: in vivo; conditions: for IOP-lowering effect, single dose: 500 μg in aqueous solution, topical, lasered eye of unanesthetized monkeys; for IOP-lowering effect after repeated doses: 500 μg twice daily, 7 consecutive days, lasered monkey eyes
Experimental: The IOP-lowering effect of propentofylline in primates was discovered when tested in ocular hypertensive monkeys. In this animal model, the IOP of cynomolgus monkeys was artificially elevated by laser-induced photocoagulation of the TM.
Top Panel: IOP-lowering effect of Propentofylline (PPF) (500 μg) in lasered monkey eyes.
These monkeys received 500 μg of propentofylline twice daily for the indicated days and the IOP was measured right after the morning dosing.
Studies were performed as described previously (Toris, et al., Aqueous humor dynamics in monkeys with laser-induced glaucoma, Journal of Ocular Pharmacology and Therapeutics, 2000;16:19-27). (See FIG. 3.)

[3] = tested on: anterior segments of non-glaucomatous donor eyes; test: Outflow in human ocular perfusion organ culture; conditions: 100 μM continuous perfusion, days 2 and 3 after initiation of perfusion
Experimental: In this ex vivo study, the anterior segments of non-glaucomatous donor eyes were perfused continuously with 100 μM of propentofylline.
Human ocular perfusion organ culture was performed as described (Tschumper, et al. Glycosaminoglycans of human trabecular meshwork in perfusion organ culture. Current Eye Research, 1990;9:363-369; Clark et al, Dexamethasone-induced ocular hypertension in perfusion-cultured human eyes. Investigative Ophthalmology and Visual Science 1995;36:478-489). Briefly, human cadaver eyes, 16 to 20 hours post mortem, were dissected at the equator and the lens, vitreous and iris were removed. The anterior segment of the eye, including cornea and sclera ring containing TM and ciliary body, was placed into a custom-made plexiglass culture dish and sealed in place with a plexiglass O-ring. Culture media (Dulbecco's modified Eagle medium) was placed in a reservoir and perfused through a central cannula in the bottom of the dish. The reservoir was raised to generate approximately 11 mmHg of hydrostatic pressure relative to the center of the perfused eye. The weight of the reservoir was recorded daily. […]
After a 2-4 days stabilization period, the eyes were perfused with either 100 μM propentofylline (PPF) or vehicle alone and their outflow rates monitored for is another 4 days. * represents p<0.05 by Student's t-test. […]

IOP in the rabbit = conditions: cited from earlier work

N[C@@H](Cc1c[nH]c2ccccc12)C(=O)NO [L-tryptophan hydroxamate]
effect on outflow facility / aqueous outflow (in words) (human anterior segment): suppressed aqueous outflow

CC(=O)CCCCn1c(=O)c2c(ncn2C)n(C)c1=O [Pentoxifylline]
effect on IOP [1]: slight decrease in IOP
effect on IOP of rabbits (in words) (Rabbit IOP): did not significantly lower IOP
% Change in IOP Mean (Rabbit IOP; 0 hour after treatment): 0.0%
IOP (mmHg) Mean (Rabbit IOP; 0 hour after treatment): 23.8 mmHg
% Change in IOP Mean (Rabbit IOP; 1 hour after treatment): −8.9%
IOP (mmHg) Mean (Rabbit IOP; 1 hour after treatment): 21.6 mmHg
% Change in IOP Mean (Rabbit IOP; 3 hours after treatment): −1.8%
IOP (mmHg) Mean (Rabbit IOP; 3 hours after treatment): 23.1 mmHg
% Change in IOP Mean (Rabbit IOP; 5 hours after treatment): 17.5%
IOP (mmHg) Mean (Rabbit IOP; 5 hours after treatment): 27.8 mmHg
% Change in IOP Mean (Rabbit IOP; 7 hours after treatment): 15.9%
IOP (mmHg) Mean (Rabbit IOP; 7 hours after treatment): 27.3 mmHg
change in MMP-3 expression in the TM cells [2]: did not produce a statistically significant change

CCCn1cnc2c1c(=O)n(CCCCC(C)=O)c(=O)n2C [Propentofylline, 3-methyl-1-(5′-oxohexyl)-7-propyl-xanthine]
effect on IOP of rabbits (in words) (Rabbit IOP): did not affect the IOP of rabbits
tolerability (Rabbit IOP; 500 μg topical onto the eye): well tolerated
% Change in IOP Mean (Rabbit IOP; 0 hour after treatment): 0.0%
IOP (mmHg) Mean (Rabbit IOP; 0 hour after treatment): 23.5 mmHg
% Change in IOP Mean (Rabbit IOP; 1 hour after treatment): −10.0%
IOP (mmHg) Mean (Rabbit IOP; 1 hour after treatment): 21.0 mmHg
% Change in IOP Mean (Rabbit IOP; 3 hours after treatment): 1.3%
IOP (mmHg) Mean (Rabbit IOP; 3 hours after treatment): 23.6 mmHg
% Change in IOP Mean (Rabbit IOP; 5 hours after treatment): 1.1%
IOP (mmHg) Mean (Rabbit IOP; 5 hours after treatment): 23.5 mmHg
% Change in IOP Mean (Rabbit IOP; 7 hours after treatment): 4.7%
IOP (mmHg) Mean (Rabbit IOP; 7 hours after treatment): 24.0 mmHg
IOP-lowering effect, single dose (lasered monkey eyes): clearly reduced IOP at 1 hour
IOP-lowering effect, single dose (lasered monkey eyes; listed as propentofylline): dramatic decrease in IOP
IOP-lowering effect after repeated doses (lasered monkey eyes): ocular hypotensive even after repeated doses
IOP-lowering effect after repeated doses (lasered monkey eyes; listed as propentofylline): persisted even after 7 consecutive days
tolerability (lasered monkey eyes; monkeys, 500 μg topical): well tolerated
outflow rates compared to vehicle-treated eyes [3]: significantly increased
expression of MMP-3 ([2]; 100 μM, cultured human trabecular meshwork cells): significantly increased the expression of MMP-3

OCCN(CCO)c1nc(N2CCCCC2)c2nc(N(CCO)CCO)nc(N3CCCCC3)c2n1 [dipyridamole]
change in MMP-3 expression in the TM cells [2]: did not produce a statistically significant change

CCCn1cnc2c1c(=O)n(CCCCC(C)O)c(=O)n2C (stereo not drawn) [hydroxy-propentofylline]
change in MMP-3 expression in the TM cells [2]: did not produce a statistically significant change

CC(C)OC(=O)CCC/C=C\C[C@@H]1[C@@H](CC[C@@H](O)CCc2ccccc2)[C@H](O)C[C@@H]1O [latanoprost]
effect on IOP in the rabbit (IOP in the rabbit): no measurable effect on IOP

CN(C)c1ccc(O)c2c1C[C@H]1C[C@H]3[C@H](N(C)C)C(O)=C(C(N)=O)C(=O)[C@@]3(O)C(O)=C1C2=O [minocylcine]
effect on outflow facility / aqueous outflow (in words) (human anterior segment): suppressed aqueous outflow

CC[C@@H]1C(=O)OC[C@@H]1Cc1cncn1C [pilocarpine]
effect on IOP in the rabbit (IOP in the rabbit): no measurable effect on IOP

B1: interleukin-1α: cytokine known to increase the expression of matrix metalloproteinases in the TM (protein, UniProt P01583 113-271, looked up)
Interleukin-1 alpha: SAPFSFLSNVKYNFMRIIKYEFILNDALNQSIIRANDQYLTAAALHNLDEAVKFDMGAYKSSKDDAKITVILRISKTQLYVTAQDEDQPVLLKEMPEIPKTITGSETNLLFFWETHGTKNYFTSVAHPNLFIATKQDYWVCLAGGPPSITDFQILENQA
effect on outflow facility / aqueous outflow (in words) (human anterior segment): augmented the outflow facility
